Results: ChEMBL document CHEMBL1201862, “PubChem BioAssay data set” (2004)
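Following 48 hours of exposure in 96-well plates, responses at five concentrations were used to interpolate endpoints linearly. GI50 = concentration required for 50% inhibition of growth.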 Calls of active or inactive are those of the source. Cut-off read from the data, not from the text of the source: active = GI50 up to about 1.1 µM and inactive = higher.

Assays:
Assay in all cases: NCI anticancer screen, dose series, 48 h
[1] = system: A549
[2] = system: SN12C
[3] = system: TK-10
[4] = system: HCT-15
[5] = system: ACHN
[6] = system: MOLT-4
[7] = system: OVCAR-8
[8] = system: Malme-3M
[9] = system: NCI-H226
[10] = system: U-251
[11] = system: SNB-75
[12] = system: SF-268
[13] = system: SW-620
[14] = system: M14
[15] = system: OVCAR-5
[16] = system: K562
[17] = system: NCI-H522
[18] = system: UACC-257
[19] = system: OVCAR-3
[20] = system: MDA-MB-435

CC(=N/NC(=S)N1CCCCCC1)/C(C)=N\NC(=S)N1CCCCCC1
GI50 [1]: 5.3 µM (inactive) | GI50 [2]: 1.91 µM (inactive) | GI50 [3]: 4.34 µM (inactive) | GI50 [4]: 4.34 µM | GI50 [5]: 3.38 µM (inactive) | GI50 [6]: > 100 µM (inactive) | GI50 [7]: 15.7 µM (inactive) | GI50 [8]: 5.5 µM (inactive) | GI50 [9]: 3.42 µM (inactive) | GI50 [10]: 2.43 µM (inactive) | GI50 [11]: 5.09 µM (inactive) | GI50 [12]: 3.45 µM (inactive) | GI50 [13]: 2.37 µM (inactive) | GI50 [14]: 5.25 µM (inactive) | GI50 [15]: 7.89 µM (inactive) | GI50 [16]: 13.2 µM (inactive) | GI50 [17]: 4.14 µM (inactive) | GI50 [18]: 5.2 µM (inactive) | GI50 [19]: 5.6 µM (inactive) | GI50 [20]: 1.83 µM (inactive)

C(=NCCN1CCOCC1)=NC1CCCCC1
GI50 [1]: > 100 µM (inactive) | GI50 [2]: > 100 µM (inactive) | GI50 [3]: > 100 µM (inactive) | GI50 [4]: > 100 µM | GI50 [5]: > 100 µM (inactive) | GI50 [6]: > 100 µM (inactive) | GI50 [7]: > 100 µM (inactive) | GI50 [8]: > 100 µM (inactive) | GI50 [9]: > 100 µM (inactive) | GI50 [10]: > 100 µM (inactive) | GI50 [11]: > 100 µM (inactive) | GI50 [12]: > 100 µM (inactive) | GI50 [13]: > 100 µM (inactive) | GI50 [14]: > 100 µM (inactive) | GI50 [15]: > 100 µM (inactive) | GI50 [16]: > 100 µM (inactive) | GI50 [17]: > 100 µM (inactive) | GI50 [18]: > 100 µM (inactive) | GI50 [19]: > 100 µM (inactive) | GI50 [20]: > 100 µM (inactive)

O=C1c2ccccc2-c2ccc(N(Cc3ccc(Br)cc3)Cc3ccc(Br)cc3)cc21
GI50 [1]: 22.3 µM (inactive) | GI50 [2]: > 100 µM (inactive) | GI50 [3]: > 100 µM (inactive) | GI50 [4]: > 100 µM | GI50 [5]: > 100 µM (inactive) | GI50 [6]: 36.2 µM (inactive) | GI50 [7]: > 100 µM (inactive) | GI50 [8]: > 100 µM (inactive) | GI50 [9]: > 100 µM (inactive) | GI50 [10]: > 100 µM (inactive) | GI50 [11]: > 100 µM (inactive) | GI50 [12]: > 100 µM (inactive) | GI50 [13]: > 100 µM (inactive) | GI50 [14]: > 100 µM (inactive) | GI50 [15]: > 100 µM (inactive) | GI50 [16]: > 100 µM (inactive) | GI50 [17]: > 100 µM (inactive) | GI50 [18]: > 100 µM (inactive) | GI50 [19]: > 100 µM (inactive) | GI50 [20]: > 100 µM (inactive)

COc1ccccc1N1C(=O)CC(=O)N(C(=O)CCCCCCCCC(=O)N2C(=O)CC(=O)N(c3ccccc3OC)C2=S)C1=S
GI50 [1]: 53.7 µM (inactive) | GI50 [2]: > 100 µM (inactive) | GI50 [3]: > 100 µM (inactive) | GI50 [4]: 96.4 µM | GI50 [5]: > 100 µM (inactive) | GI50 [6]: 35.1 µM (inactive) | GI50 [7]: 63.2 µM (inactive) | GI50 [8]: > 100 µM (inactive) | GI50 [9]: > 100 µM (inactive) | GI50 [10]: 70 µM (inactive) | GI50 [11]: > 100 µM (inactive) | GI50 [12]: > 100 µM (inactive) | GI50 [13]: > 100 µM (inactive) | GI50 [14]: 69.7 µM (inactive) | GI50 [15]: > 100 µM (inactive) | GI50 [16]: 38.1 µM (inactive) | GI50 [17]: 47.3 µM (inactive) | GI50 [18]: > 100 µM (inactive) | GI50 [19]: 55.2 µM (inactive) | GI50 [20]: > 100 µM (inactive)
